# In PubChem BioAssay (NCI):
#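 Results reflect a 48-hour exposure of cells in 96-well plates to compound at five concentrations. GI50 is the concentration that inhibits growth by half. The concentration for full growth arrest is given as TGI.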
# Key:
# Assay in all cases: NCI anticancer screen, dose series, 48 h
# [1] = system: HS 578T breast
# [2] = system: OVCAR-4 ovarian
# [3] = system: IGROV1 ovarian
# [4] = system: HL-60(TB) leukemia
# [5] = system: UACC-257 melanoma
# [6] = system: MOLT-4 leukemia
# [7] = system: DU-145 prostate
# [8] = system: NCI-H226 lung
# [9] = system: OVCAR-8 ovarian
# [10] = system: SW-620 colon
# [11] = system: SF-295 CNS
# [12] = system: SF-268 CNS
# [13] = system: UACC-62 melanoma
# [14] = system: NCI-H460 lung
# [15] = system: CCRF-CEM leukemia
# [16] = system: SN12C renal
# [17] = system: SF-539 CNS
# [18] = system: MDA-MB-468 breast
# [19] = system: KM12 colon
# [20] = system: T-47D breast
# [21] = system: OVCAR-3 ovarian
# [22] = system: TK-10 renal
# [23] = system: SNB-75 CNS
# [24] = system: HOP-62 NSCLC
# [25] = system: U251 CNS
# [26] = system: NCI-H23 lung
# [27] = system: NCI/ADR-RES ovarian
# [28] = system: A498 renal
# [29] = system: HCT-15 colon
structure (smiles),measurement,setting,value
O=C(NO)c1ccc(-c2nc3ccc4[nH]ncc4c3c3c2CCCC3)cc1,GI50,[1],191 nM
same,TGI,[1],1300 nM
same,GI50,[2],706 nM
same,TGI,[2],6380 nM
same,GI50,[3],318 nM
same,TGI,[3],3110 nM
same,GI50,[4],339 nM
same,TGI,[4],2980 nM
same,GI50,[5],1290 nM
same,TGI,[5],> 23200 nM
same,GI50,[6],244 nM
same,TGI,[6],942 nM
same,GI50,[7],407 nM
same,TGI,[7],> 34900 nM
same,GI50,[8],296 nM
same,TGI,[8],3090 nM
same,GI50,[9],300 nM
same,TGI,[9],13500 nM
same,GI50,[10],245 nM
same,TGI,[10],> 77900 nM
same,GI50,[11],880 nM
same,TGI,[11],9760 nM
same,GI50,[12],298 nM
same,TGI,[12],1600 nM
same,GI50,[13],237 nM
same,TGI,[13],1450 nM
same,GI50,[14],486 nM
same,TGI,[14],2490 nM
same,GI50,[15],361 nM
same,TGI,[15],> 100000 nM
same,GI50,[16],281 nM
same,TGI,[16],3390 nM
same,GI50,[17],168 nM
same,TGI,[17],455 nM
same,GI50,[18],97.9 nM
same,TGI,[18],279 nM
same,GI50,[19],391 nM
same,TGI,[19],13700 nM
same,GI50,[20],196 nM
same,TGI,[20],1750 nM
same,GI50,[21],377 nM
same,TGI,[21],11000 nM
same,GI50,[22],261 nM
same,TGI,[22],10400 nM
same,GI50,[23],207 nM
same,TGI,[23],875 nM
same,GI50,[24],253 nM
same,TGI,[24],5210 nM
same,GI50,[25],287 nM
same,TGI,[25],4970 nM
same,GI50,[26],316 nM
same,TGI,[26],1180 nM
same,GI50,[27],1030 nM
same,TGI,[27],21000 nM
same,GI50,[28],254 nM
same,TGI,[28],2640 nM
same,GI50,[29],250 nM
same,TGI,[29],8570 nM
